Measurements published in US10300071B2, “Compositions and methods for inhibition of mycobacteria” (priority 2014, dated 2019).
In brackets after ≈: the same amount, converted by molar mass. Where two headings read alike, the source gives them in different places.

Columns and labels:
Mtb strain mc^2-7000 = assay: microbe, parasite or virus in culture; format: cell-based, Mycobacterium tuberculosis; details: for MIC: 6 days incubation at 37° C., resazurin, read on the 7th day
Mtb AccD6 = Mtb AccD6 (Mycobacterium tuberculosis, UniProt P9WQH5); assay: biochemical; format: biochemical; details: for IC50: 300 μM malonyl-CoA, inhibitor 10 μM to 2000 μM
Mtb AccD6, sequence (P9WQH5 whole entry, looked up): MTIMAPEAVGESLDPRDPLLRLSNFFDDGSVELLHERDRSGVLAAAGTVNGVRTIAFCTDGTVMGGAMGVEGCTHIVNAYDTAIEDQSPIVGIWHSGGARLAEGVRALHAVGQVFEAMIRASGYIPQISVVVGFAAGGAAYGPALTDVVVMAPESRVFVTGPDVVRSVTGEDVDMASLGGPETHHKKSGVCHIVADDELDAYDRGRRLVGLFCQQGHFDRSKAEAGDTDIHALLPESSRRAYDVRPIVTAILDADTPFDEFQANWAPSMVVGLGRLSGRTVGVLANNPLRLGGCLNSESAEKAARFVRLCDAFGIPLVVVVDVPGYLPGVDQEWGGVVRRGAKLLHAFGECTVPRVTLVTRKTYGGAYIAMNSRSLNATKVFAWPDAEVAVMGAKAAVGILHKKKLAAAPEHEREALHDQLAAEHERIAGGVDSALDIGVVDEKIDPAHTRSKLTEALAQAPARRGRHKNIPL

[1] = Mycobacterium tuberculosis, 144 h, read-out: MIC

Structure (SMILES)	MIC (Mtb strain mc^2-7000; [1])	IC50 (Mtb AccD6; read-out: IC50)	other results
CC(Oc1ccc(Oc2ncc(C(F)(F)F)cc2Cl)cc1)C(=O)O (racemic) [haloxyfop, (RS)-2-{4-[3-chloro-5-(trifluoromethyl)-2-pyridyloxy]phenoxy}propionic acid, reference compound]	–	–	whole Mycobacterium tuberculosis cell inhibition (Mtb strain mc^2-7000; preliminary studies of commercially available herbicides): none exhibited whole Mycobacterium tuberculosis cell inhibition
CCOC(=O)[C@@H](C)Oc1ccc(Oc2nc3ccc(Cl)cc3s2)cc1 [NZ-246, ethyl (2R)-2-{4-[(6-chloro-1,3-benzothiazol-2-yl)oxy]phenoxy}propanoate]	3 µM (≈ 1.13 µg/mL)	–	–
CCOC(=O)[C@@H](C)Oc1ccc(Oc2nc3ccc(Br)cc3s2)cc1 [NZ-250, ethyl (2R)-2-{4-[(6-bromo-1,3-benzothiazol-2-yl)oxy]phenoxy}propanoate]	3.12 µM (≈ 1.32 µg/mL)	–	–
CCOC(=O)[C@@H](C)Oc1ccc(Oc2nc3ccccc3s2)cc1 [NZ-252, ethyl (2R)-2-[4-(1,3-benzothiazol-2-yloxy)phenoxy]propanoate]	–	–	IC50 (Mtb AccD6): Not Soluble; MIC (Mtb strain mc^2-7000): Not Soluble
COC(=O)COc1ccc(Oc2cnc3cc(Cl)ccc3n2)cc1 [NZ-256, methyl 2-{4-[(6-chloroquinoxalin-2-yl)oxy]phenoxy}acetate]	1.5 µM	–	–
NC(=O)COc1ccc(Oc2cnc3cc(Cl)ccc3n2)cc1 [NZ-258, 2-{4-[(6-chloroquinoxalin-2-yl)oxy]phenoxy}acetamide]	50 µM (≈ 16.5 µg/mL)	2.1 to 3.1 µM	–
CS(=O)(=O)NC(=O)COc1ccc(Oc2cnc3cc(Cl)ccc3n2)cc1 [NZ-259, 2-{4-[(6-chloroquinoxalin-2-yl)oxy]phenoxy}-N-methanesulfonylacetamide]	> 50 µM	1.6 to 2.6 µM	–
CCOC(=O)[C@@H](C)Oc1ccc(Oc2nc3ccc([N+](=O)[O-])cc3s2)cc1 [NZ-260, ethyl (2R)-2-{4-[(6-nitro-1,3-benzothiazol-2-yl)oxy]phenoxy}propanoate]	0.19 to 2.3 µM (≈ 0.0738 to 0.893 µg/mL)	–	–
CN(C)C(=O)COc1ccc(Oc2cnc3cc(Cl)ccc3n2)cc1 [NZ-262, 2-{4-[(6-chloroquinoxalin-2-yl)oxy]phenoxy}-N,N-dimethylacetamide]	> 25 µM	1.8 µM	–
N#CCOc1ccc(Oc2cnc3cc(Cl)ccc3n2)cc1 [NZ-263, 2-{4-[(6-chloroquinoxalin-2-yl)oxy]phenoxy}acetonitrile]	> 50 µM	7.8 µM	–
CC(O)COc1ccc(Oc2cnc3cc(Cl)ccc3n2)cc1 (centres unmarked) [NZ-264, 1-{4-[(6-chloroquinoxalin-2-yl)oxy]phenoxy}propan-2-ol]	> 12.5 µM	3.4 µM	–
O=C(COc1ccc(Oc2cnc3cc(Cl)ccc3n2)cc1)N1CCCCC1 [NZ-265, 2-{4-[(6-chloroquinoxalin-2-yl)oxy]phenoxy}-1-(piperidin-1-yl)ethan-1-one]	3 µM (≈ 1.19 µg/mL)	0.57 µM	–
O=C(COc1ccc(Oc2cnc3cc(Cl)ccc3n2)cc1)N1CCOCC1 [NZ-266, 2-{4-[(6-chloroquinoxalin-2-yl)oxy]phenoxy}-1-(morpholin-4-yl)ethan-1-one]	> 12.5 µM	0.99 µM	–
CNC(=O)COc1ccc(Oc2cnc3cc(Cl)ccc3n2)cc1 [NZ-267, 2-{4-[(6-chloroquinoxalin-2-yl)oxy]phenoxy}-N-methylacetamide]	> 25 µM	2.4 µM	–
Clc1ccc2nc(Oc3ccc(OCc4nnn[nH]4)cc3)cnc2c1 [NZ-268, 6-chloro-2-[4-(1H-1,2,3,4-tetrazol-5-ylmethoxy)phenoxy]quinoxaline]	> 12.5 µM	1.7 µM	–
Cn1nnnc1COc1ccc(Oc2cnc3cc(Cl)ccc3n2)cc1 [NZ-270, 6-chloro-2-{4-[(1-methyl-1H-1,2,3,4-tetrazol-5-yl)methoxy]phenoxy}quinoxaline]	> 50 µM	9.7 µM	–
Clc1ccc2nc(Oc3ccc(OCc4ncco4)cc3)cnc2c1 [NZ-271, 6-chloro-2-[4-(1,3-oxazol-2-ylmethoxy)phenoxy]quinoxaline]	> 50 µM	11.6 µM	–
CCOC(COc1ccc(Oc2cnc3cc(Cl)ccc3n2)cc1)OCC [NZ-272, 6-chloro-2-[4-(2,2-diethoxyethoxy)phenoxy]quinoxaline]	> 12.5 µM	5.8 µM	–
Clc1ccc2nc(Oc3ccc(OCc4ncc[nH]4)cc3)cnc2c1 [NZ-273, 6-chloro-2-[4-(1H-imidazol-2-ylmethoxy)phenoxy]quinoxaline]	> 25 µM	7.9 µM	–

Structure (SMILES)	MIC (Mtb strain mc^2-7000; [1])	IC50 (Mtb AccD6; read-out: IC50)	other results
O=C(COc1ccc(Oc2cnc3cc(Cl)ccc3n2)cc1)NS(=O)(=O)C(F)(F)F [NZ-275, 2-{4-[(6-chloroquinoxalin-2-yl)oxy]phenoxy}-N-trifluoromethanesulfonylacetamide]	12.5 µM (≈ 5.77 µg/mL)	3.8 µM	–
O=C(COc1ccc(Oc2cnc3cc(Cl)ccc3n2)cc1)NS(=O)(=O)c1ccccc1 [NZ-276, N-(benzenesulfonyl)-2-{4-[(6-chloroquinoxalin-2-yl)oxy]phenoxy}acetamide]	3.1 µM (≈ 1.46 µg/mL)	7.3 µM	–
O=C(COc1ccc(Oc2cnc3cc(Cl)ccc3n2)cc1)N1CCNCC1 [NZ-277, 2-{4-[(6-chloroquinoxalin-2-yl)oxy]phenoxy}-1-(piperazin-1-yl)ethan-1-one]	12.5 µM (≈ 4.99 µg/mL)	5.6 µM	–
CN1CCN(C(=O)COc2ccc(Oc3cnc4cc(Cl)ccc4n3)cc2)CC1 [NZ-278, 2-{4-[(6-chloroquinoxalin-2-yl)oxy]phenoxy}-1-(4-methylpiperazin-1-yl)ethan-1-one]	3.1 µM (≈ 1.28 µg/mL)	1.1 µM	–
CN(O)C(=O)COc1ccc(Oc2cnc3cc(Cl)ccc3n2)cc1 [NZ-279, 2-{4-[(6-chloroquinoxalin-2-yl)oxy]phenoxy}-N-hydroxy-N-methylacetamide]	> 50 µM	0.8 µM	–
COC(=O)CCc1ccc(Oc2nc3ccc(Cl)cc3s2)cc1 [NZ-280, methyl 3-{4-[(6-chloro-1,3-benzothiazol-2-yl)oxy]phenyl}propanoate]	6 µM (≈ 2.09 µg/mL)	–	inhibition at 20 µM (Mtb AccD6; read-out: inhibition at 20 uM): 50%
COC(=O)/C=C/c1ccc(Oc2nc3ccc(Cl)cc3s2)cc1 [NZ-281, methyl (2E)-3-{4-[(6-chloro-1,3-benzothiazol-2-yl)oxy]phenyl}prop-2-enoate]	50 µM (≈ 17.3 µg/mL)	–	inhibition at 20 µM (Mtb AccD6; read-out: inhibition at 20 uM): 30%
O=C(O)CCc1ccc(Oc2nc3ccc(Cl)cc3s2)cc1 [NZ-282, 3-{4-[(6-chloro-1,3-benzothiazol-2-yl)oxy]phenyl}propanoic acid]	–	–	inhibition at 20 µM (Mtb AccD6; read-out: inhibition at 20 uM): 40%; MIC (Mtb strain mc^2-7000): Not Active
O=C(O)/C=C/c1ccc(Oc2nc3ccc(Cl)cc3s2)cc1 [NZ-283, (2E)-3-{4-[(6-chloro-1,3-benzothiazol-2-yl)oxy]phenyl}prop-2-enoic acid]	12 µM (≈ 3.98 µg/mL)	–	inhibition at 20 µM (Mtb AccD6; read-out: inhibition at 20 uM): 33%
COC(=O)c1ccc(Oc2nc3ccc(Cl)cc3s2)cc1 [NZ-285, methyl 4-[(6-chloro-1,3-benzothiazol-2-yl)oxy]benzoate]	12 µM (≈ 3.84 µg/mL)	–	IC50 (Mtb AccD6): Not Active
O=C(COc1ccc(Oc2cnc3cc(Cl)ccc3n2)cc1)NO [NZ-286, 2-{4-[(6-chloroquinoxalin-2-yl)oxy]phenoxy}-N-hydroxyacetamide]	3 µM (≈ 1.04 µg/mL)	1.4 µM	–
O=C(O)c1ccc(Oc2nc3ccc(Cl)cc3s2)cc1 [NZ-288, 4-[(6-chloro-1,3-benzothiazol-2-yl)oxy]benzoic acid]	25 µM (≈ 7.64 µg/mL)	12 µM	–
Cc1cccc(Oc2nc3ccc(Cl)cc3s2)c1 [NZ-291, 6-chloro-2-(3-methylphenoxy)-1,3-benzothiazole]	25 µM (≈ 6.89 µg/mL)	–	inhibition at 20 µM (Mtb AccD6; read-out: inhibition at 20 uM): 30%
Clc1ccc2nc(Oc3ccccc3)sc2c1 [NZ-292, 6-chloro-2-phenoxy-1,3-benzothiazole]	12 µM (≈ 3.14 µg/mL)	–	inhibition at 20 µM (Mtb AccD6; read-out: inhibition at 20 uM): 42%
COC(=O)Cc1ccc(Oc2nc3ccc(Cl)cc3o2)cc1 [NZ-302, methyl 2-{4-[(6-chloro-1,3-benzoxazol-2-yl)oxy]phenyl}acetate]	3 µM	–	inhibition at 20 µM (Mtb AccD6; read-out: inhibition at 20 uM): 50%
CONC(=O)Nc1ccc(Oc2cnc3cc(Cl)ccc3n2)cc1 [NZ-344, 1-{4-[(6-chloroquinoxalin-2-yl)oxy]phenyl}-3-methoxyurea]	25 µM (≈ 8.62 µg/mL)	4.1 µM	–
CC(C)NC(=O)Cc1ccc(Oc2nc3cc(F)c(F)cc3s2)cc1 [NZ-403, 2-{4-[(5,6-difluoro-1,3-benzothiazol-2-yl)oxy]phenyl}-N-(propan-2-yl)acetamide]	1.24 µM (≈ 0.449 µg/mL)	0.16 µM	–
CC(C)NC(=O)Cn1ccc(Oc2nc3ccc(Cl)cc3s2)cc1=O [NZ-404, 2-{4-[(6-chloro-1,3-benzothiazol-2-yl)oxy]-2-oxo-1,2-dihydropyridin-1-yl}-N-(propan-2-yl)acetamide]	–	14.4 µM	% at 50 uM (Mtb strain mc^2-7000; 50 uM): 38% at 50 uM
CC(C)NC(=O)Nc1ccc(Oc2nc3ccc(Cl)cc3s2)cn1 [WuXi-N8, 1-{5-[(6-chloro-1,3-benzothiazol-2-yl)oxy]pyridin-2-yl}-3-(propan-2-yl)urea]	–	–	inhibition at 20 µM (Mtb AccD6; 20 uM, pH 8.0, read-out: inhibition at 20 uM- pH 8.0): 40%; inhibition at 20 µM (Mtb AccD6; 20 uM, pH 8.5, read-out: inhibition at 20 uM- pH 8.5): 47%
